# Measurements: ChEMBL document CHEMBL4312034, “Virtual screening-driven discovery of dual 5-HT6/5-HT2A receptor ligands with pro-cognitive properties” (Eur J Med Chem, 2020)
# Calls of active or inactive are those of the source. No cut-off for these calls is given here.
# Columns and labels:
# [1] = target: T1, 5-hydroxytryptamine receptor 6 (Homo sapiens, UniProt P50406); assay: Binding affinity to 5-HT6R (unknown origin) assessed as inhibitory constant
# [2] = Half life in rat liver microsomes up to 60 mins by HPLC-LC/MS analysis
# in vitro = details: rat
# [3] = target: T1, 5-hydroxytryptamine receptor 6; assay: Displacement of [3H]-LSD from human 5-HT6R expressed in HEK293 cells after 1 hr by microbeta plate reader analysis; type: cell-based
# [4] = target: T2, 5-hydroxytryptamine receptor 2A (Homo sapiens, UniProt P28223); assay: Binding affinity to human 5-HT2AR expressed in HEK293 cells by competitive binding assay; type: cell-based
# [5] = target: 5-hydroxytryptamine receptor 7 (Homo sapiens, UniProt P34969); assay: Displacement of [3H]-CT from human 5-HT7 receptor expressed in HEK293 cells after 1 hr by microbeta plate reader analysis; type: cell-based
# D(2) dopamine receptor = D(2) dopamine receptor (Homo sapiens, UniProt P14416); assay: Displacement of [3H]-raclopride from human D2R expressed in HEK293 cells after 1 hr by microbeta plate reader analysis; type: cell-based
# [6] = target: T3, 5-hydroxytryptamine receptor 1A (Homo sapiens, UniProt P08908); assay: Displacement of [3H]-8-OH-DPAT from human 5-HT1A receptor expressed in HEK293 cells after 1 hr by microbeta plate reader analysis; type: cell-based
# T3 sequence (P08908 whole entry): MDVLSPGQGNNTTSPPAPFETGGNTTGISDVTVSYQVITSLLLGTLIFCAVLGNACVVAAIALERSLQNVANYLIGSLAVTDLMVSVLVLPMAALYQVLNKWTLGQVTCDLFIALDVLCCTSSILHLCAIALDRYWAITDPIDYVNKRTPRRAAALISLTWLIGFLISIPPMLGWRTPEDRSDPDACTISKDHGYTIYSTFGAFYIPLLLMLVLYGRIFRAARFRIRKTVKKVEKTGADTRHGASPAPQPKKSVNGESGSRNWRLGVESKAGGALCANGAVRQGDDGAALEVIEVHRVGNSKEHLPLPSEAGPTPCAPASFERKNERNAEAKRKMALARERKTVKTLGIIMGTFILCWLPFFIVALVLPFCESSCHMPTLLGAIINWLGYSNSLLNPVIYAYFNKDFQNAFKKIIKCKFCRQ
# 5-HT2C receptor [7] = target: T4, 5-HT2C receptor (Homo sapiens, UniProt P28335); assay: Inhibition of 5-HT2C receptor (unknown origin) at 10^-6 M relative to control
# T4 sequence (P28335 whole entry): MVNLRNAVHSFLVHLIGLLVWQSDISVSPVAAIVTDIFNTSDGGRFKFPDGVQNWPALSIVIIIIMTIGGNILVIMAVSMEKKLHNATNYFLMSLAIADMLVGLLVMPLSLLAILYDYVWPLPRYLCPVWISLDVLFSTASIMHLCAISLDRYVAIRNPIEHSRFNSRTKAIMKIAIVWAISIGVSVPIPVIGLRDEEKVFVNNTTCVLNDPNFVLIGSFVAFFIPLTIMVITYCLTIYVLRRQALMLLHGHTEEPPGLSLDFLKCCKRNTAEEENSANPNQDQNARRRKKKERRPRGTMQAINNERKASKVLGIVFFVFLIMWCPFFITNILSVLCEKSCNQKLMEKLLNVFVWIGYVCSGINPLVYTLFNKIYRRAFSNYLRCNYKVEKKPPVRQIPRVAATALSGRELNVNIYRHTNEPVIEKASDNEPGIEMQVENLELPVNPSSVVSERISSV
# Rattus norvegicus [8] = assay: Reversal of phencyclidine-induced memory impairment in Sprague-Dawley rat at 1 to 3 mg/kg, po for 2 hrs followed by phencyclidine treatment 45 mins prior to testing by novel object recognition test; type: functional, organism-based
# [9] = target: T1, 5-hydroxytryptamine receptor 6; assay: Antagonist activity at human 5-HT6 receptor expressed in HEK293 cells assessed as inhibition of 5-CT induced cAMP production incubated for 30 mins by TR-FRET assay; type: functional, cell-based
# [10] = target: 5-hydroxytryptamine receptor 2B (Homo sapiens) (UniProt P41595); assay: Displacement of [3H]-Mesulergine from recombinant human 5-HT2B receptor at 10^-6 M after 60 mins by radiometric scintillation analysis relative to control
# [11] = target: T2, 5-hydroxytryptamine receptor 2A; assay: Displacement of [3H]-Ketanserin from recombinant human 5-HT2A receptor at 10^-6 M after 60 mins by radiometric scintillation counting analysis relative to control
# hERG (KCNH2) = hERG (KCNH2) (Homo sapiens, UniProt Q12809); assay: Inhibition of human ERG at 10^-6 M relative to control
# Cytochrome P450 2D6 = Cytochrome P450 2D6 (Homo sapiens, UniProt P10635); assay: Inhibition of human CYP2D6 preincubated for 5 mins followed by NADPH addition and measured after 45 mins by luminescence based microplate reader analysis; type: ADME
# [12] = Mutagenicity in Salmonella typhimurium TA100 at 1 to 10 uM incubated for 90 mins followed by replating on medium without histidine and measured after 72 hrs by Ames test; type: toxicity; details: salmonella enterica subsp. enterica serovar typhimurium
# [13] = Ratio of Cmax in brain to plasma in Wistar rat at 10 mg/kg, po; type: ADME, organism-based; details: read-out: BPR
# HepG2 [14] = assay: Cytotoxicity against human HepG2 cells assessed as reduction in cell viability after 24 hrs by presto-blue assay; details: HepG2, 24 h
# [15] = target: T5, Alpha-1A adrenergic receptor (Homo sapiens) (UniProt P35348); assay: Displacement of [3H]prazosin from recombinant human alpha 1A adreno receptor at 10^-6 M after 60 mins by radiometric scintillation counting analysis relative to control
# T5 sequence (whole entry): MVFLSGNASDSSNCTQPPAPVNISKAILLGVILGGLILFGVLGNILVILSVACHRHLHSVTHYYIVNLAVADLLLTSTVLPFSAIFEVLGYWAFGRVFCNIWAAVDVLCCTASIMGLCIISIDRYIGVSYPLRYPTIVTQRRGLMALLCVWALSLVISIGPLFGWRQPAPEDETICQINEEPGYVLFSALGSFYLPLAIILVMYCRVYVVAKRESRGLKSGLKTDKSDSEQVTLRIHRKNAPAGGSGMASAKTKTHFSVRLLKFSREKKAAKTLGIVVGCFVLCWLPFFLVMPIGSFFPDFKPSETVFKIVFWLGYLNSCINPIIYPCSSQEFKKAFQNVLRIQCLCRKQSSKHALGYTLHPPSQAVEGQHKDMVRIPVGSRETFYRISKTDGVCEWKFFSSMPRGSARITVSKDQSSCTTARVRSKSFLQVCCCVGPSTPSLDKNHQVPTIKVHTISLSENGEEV
# Rattus norvegicus [16] = assay: Reversal of phencyclidine-induced memory impairment in Sprague-Dawley rat at 3 to 10 mg/kg, po for 2 hrs followed by phencyclidine treatment 45 mins prior to testing by novel object recognition test; type: functional, organism-based
# [17] = target: T6, Muscarinic acetylcholine receptor M1 (Homo sapiens) (UniProt P11229); assay: Displacement of [3H]pyrilamine from recombinant human M1 receptor at 10^-6 M after 60 mins by radiometric scintillation counting analysis relative to control
# T6 sequence (whole entry): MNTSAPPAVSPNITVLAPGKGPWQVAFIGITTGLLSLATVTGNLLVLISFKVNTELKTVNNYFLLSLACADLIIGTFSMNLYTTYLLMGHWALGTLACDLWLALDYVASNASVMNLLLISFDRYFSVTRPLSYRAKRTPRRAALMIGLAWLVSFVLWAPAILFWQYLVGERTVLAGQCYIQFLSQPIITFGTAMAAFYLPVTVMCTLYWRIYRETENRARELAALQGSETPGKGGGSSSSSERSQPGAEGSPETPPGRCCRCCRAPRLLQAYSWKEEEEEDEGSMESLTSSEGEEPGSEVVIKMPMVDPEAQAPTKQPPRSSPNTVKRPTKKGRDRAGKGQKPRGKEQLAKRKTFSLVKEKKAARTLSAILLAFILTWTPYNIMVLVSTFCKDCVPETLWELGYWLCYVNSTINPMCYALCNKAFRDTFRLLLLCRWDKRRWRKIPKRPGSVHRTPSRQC
# P-gp (ABCB1) [18] = target: T7, P-gp (ABCB1) (Homo sapiens, UniProt P08183); assay: Substrate activity at Pgp (unknown origin) assessed as permeability from basolateral to apical side by cell based assay; type: ADME; details: not told
# [19] = target: Histamine H1 receptor (Homo sapiens) (UniProt P35367); assay: Displacement of [3H]pyrilamine from recombinant human H1 receptor at 10^-6 M after 60 mins by radiometric scintillation counting analysis relative to control
# Cytochrome P450 3A4 = Cytochrome P450 3A4 (Homo sapiens, UniProt P08684); assay: Inhibition of human CYP3A4 preincubated for 5 mins followed by NADPH addition and measured after 30 mins by luminescence based microplate reader analysis; type: ADME
# [20] = target: T2, 5-hydroxytryptamine receptor 2A; assay: Displacement of [3H]-Ketanserin from recombinant human 5-HT2A receptor at 10^-7 M after 60 mins by radiometric scintillation counting analysis relative to control
# P-gp (ABCB1) [21] = target: T7, P-gp (ABCB1); assay: Substrate activity at Pgp (unknown origin) assessed as permeability from apical to basolateral side by cell based assay; type: ADME; details: not told
# HepG2 [22] = assay: Cytotoxicity against human HepG2 cells after 24 hrs by ToxiLight bioassay; details: HepG2, 24 h
# 5-HT2C receptor [23] = target: T4, 5-HT2C receptor; assay: Antagonist activity at 5-HT2CR (unknown origin) at 10^-6 M relative to control
# T1 sequence (P50406 whole entry): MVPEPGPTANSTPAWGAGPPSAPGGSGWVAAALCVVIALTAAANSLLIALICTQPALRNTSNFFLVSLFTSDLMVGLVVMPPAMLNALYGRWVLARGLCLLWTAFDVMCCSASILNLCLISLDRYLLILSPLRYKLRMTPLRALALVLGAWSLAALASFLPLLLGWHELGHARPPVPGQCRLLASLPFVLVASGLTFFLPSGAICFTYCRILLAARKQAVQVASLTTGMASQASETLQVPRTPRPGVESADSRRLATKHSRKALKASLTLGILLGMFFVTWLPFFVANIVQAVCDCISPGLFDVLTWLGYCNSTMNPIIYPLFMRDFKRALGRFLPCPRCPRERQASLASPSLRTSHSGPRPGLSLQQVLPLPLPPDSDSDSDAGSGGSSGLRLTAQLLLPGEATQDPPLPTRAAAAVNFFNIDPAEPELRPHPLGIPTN
# 5-hydroxytryptamine receptor 7, sequence (P34969 whole entry): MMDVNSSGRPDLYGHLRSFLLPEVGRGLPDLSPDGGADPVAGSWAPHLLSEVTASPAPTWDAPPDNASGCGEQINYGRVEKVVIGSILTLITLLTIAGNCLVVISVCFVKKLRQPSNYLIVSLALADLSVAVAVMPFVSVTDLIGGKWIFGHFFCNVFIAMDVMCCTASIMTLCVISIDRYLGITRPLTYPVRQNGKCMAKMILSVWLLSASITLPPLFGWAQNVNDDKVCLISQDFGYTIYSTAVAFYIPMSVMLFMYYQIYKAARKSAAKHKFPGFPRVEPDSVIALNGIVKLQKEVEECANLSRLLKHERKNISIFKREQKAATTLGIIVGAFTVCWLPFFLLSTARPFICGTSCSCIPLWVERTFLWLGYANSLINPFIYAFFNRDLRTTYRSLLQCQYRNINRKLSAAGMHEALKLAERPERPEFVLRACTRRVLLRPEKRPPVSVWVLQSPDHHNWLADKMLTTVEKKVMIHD
# D(2) dopamine receptor, sequence (P14416 whole entry): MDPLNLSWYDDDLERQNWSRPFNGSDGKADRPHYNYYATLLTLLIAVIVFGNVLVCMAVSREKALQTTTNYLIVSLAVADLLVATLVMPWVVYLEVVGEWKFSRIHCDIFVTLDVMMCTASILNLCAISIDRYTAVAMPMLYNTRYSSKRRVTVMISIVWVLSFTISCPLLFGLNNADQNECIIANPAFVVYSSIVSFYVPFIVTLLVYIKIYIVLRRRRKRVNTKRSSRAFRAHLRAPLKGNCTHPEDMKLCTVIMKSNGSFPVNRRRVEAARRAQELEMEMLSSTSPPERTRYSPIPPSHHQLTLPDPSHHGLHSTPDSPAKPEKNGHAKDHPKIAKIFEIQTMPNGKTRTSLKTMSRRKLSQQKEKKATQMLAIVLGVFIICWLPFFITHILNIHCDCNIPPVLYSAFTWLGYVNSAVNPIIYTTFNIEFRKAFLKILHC
# T2 sequence (P28223 whole entry): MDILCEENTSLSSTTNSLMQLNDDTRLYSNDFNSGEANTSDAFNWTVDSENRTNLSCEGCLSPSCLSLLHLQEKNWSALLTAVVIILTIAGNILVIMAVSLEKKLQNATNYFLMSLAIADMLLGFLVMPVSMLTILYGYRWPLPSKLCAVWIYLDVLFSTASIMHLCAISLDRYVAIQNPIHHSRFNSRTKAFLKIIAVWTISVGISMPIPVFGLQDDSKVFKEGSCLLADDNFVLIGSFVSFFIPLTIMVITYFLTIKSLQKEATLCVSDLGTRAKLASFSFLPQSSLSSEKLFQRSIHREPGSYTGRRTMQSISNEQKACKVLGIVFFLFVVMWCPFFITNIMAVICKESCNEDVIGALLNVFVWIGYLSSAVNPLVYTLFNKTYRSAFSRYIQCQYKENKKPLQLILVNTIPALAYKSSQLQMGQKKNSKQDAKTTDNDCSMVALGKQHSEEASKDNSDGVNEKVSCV
# T7 sequence (P08183 whole entry): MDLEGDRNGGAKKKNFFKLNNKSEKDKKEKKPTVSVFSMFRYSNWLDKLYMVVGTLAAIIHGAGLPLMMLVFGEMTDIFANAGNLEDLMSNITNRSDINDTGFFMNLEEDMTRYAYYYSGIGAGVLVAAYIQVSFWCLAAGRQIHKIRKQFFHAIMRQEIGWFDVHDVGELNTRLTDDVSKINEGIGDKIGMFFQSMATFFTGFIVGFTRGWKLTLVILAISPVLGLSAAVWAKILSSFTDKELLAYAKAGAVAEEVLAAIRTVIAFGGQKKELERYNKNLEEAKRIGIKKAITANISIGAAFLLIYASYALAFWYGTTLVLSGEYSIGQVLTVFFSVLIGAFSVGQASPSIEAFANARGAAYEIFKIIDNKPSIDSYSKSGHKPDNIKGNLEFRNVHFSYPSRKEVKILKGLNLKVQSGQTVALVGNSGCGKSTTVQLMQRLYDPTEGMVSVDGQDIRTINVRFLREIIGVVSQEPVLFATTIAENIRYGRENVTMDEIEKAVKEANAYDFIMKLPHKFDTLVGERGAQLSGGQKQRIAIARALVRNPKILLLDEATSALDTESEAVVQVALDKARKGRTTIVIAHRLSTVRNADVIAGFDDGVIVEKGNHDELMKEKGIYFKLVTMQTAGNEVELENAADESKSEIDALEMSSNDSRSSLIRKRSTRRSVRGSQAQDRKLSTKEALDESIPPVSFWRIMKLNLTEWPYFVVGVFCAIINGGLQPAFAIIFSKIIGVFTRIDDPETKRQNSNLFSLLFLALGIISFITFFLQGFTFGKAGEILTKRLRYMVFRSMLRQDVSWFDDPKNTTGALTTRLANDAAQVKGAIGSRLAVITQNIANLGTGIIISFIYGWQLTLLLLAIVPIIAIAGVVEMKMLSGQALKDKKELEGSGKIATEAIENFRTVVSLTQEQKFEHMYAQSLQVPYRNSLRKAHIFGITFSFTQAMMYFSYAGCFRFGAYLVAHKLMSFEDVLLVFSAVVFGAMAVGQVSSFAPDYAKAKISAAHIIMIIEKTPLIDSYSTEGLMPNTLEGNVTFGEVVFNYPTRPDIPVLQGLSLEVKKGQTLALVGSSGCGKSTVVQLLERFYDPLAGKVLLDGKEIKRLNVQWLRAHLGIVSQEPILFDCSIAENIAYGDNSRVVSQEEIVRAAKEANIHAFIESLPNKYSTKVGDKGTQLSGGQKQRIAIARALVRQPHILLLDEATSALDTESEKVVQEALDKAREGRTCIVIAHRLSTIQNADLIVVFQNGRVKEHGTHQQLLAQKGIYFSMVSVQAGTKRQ
# Histamine H1 receptor (Homo sapiens), sequence (P35367 whole entry): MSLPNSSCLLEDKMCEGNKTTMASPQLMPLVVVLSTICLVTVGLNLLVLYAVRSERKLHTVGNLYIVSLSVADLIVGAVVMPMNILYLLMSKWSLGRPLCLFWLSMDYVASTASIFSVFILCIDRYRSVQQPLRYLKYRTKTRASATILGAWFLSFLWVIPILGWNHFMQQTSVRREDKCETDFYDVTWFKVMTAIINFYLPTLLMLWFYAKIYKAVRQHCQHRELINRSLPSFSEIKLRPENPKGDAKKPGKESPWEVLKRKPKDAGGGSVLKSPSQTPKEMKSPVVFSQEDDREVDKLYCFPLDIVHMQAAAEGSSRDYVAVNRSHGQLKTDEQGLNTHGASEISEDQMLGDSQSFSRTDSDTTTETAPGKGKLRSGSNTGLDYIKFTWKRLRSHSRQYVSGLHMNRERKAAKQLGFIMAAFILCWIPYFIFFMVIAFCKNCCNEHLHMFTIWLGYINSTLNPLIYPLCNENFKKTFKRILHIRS
# Cytochrome P450 3A4, sequence (P08684 whole entry): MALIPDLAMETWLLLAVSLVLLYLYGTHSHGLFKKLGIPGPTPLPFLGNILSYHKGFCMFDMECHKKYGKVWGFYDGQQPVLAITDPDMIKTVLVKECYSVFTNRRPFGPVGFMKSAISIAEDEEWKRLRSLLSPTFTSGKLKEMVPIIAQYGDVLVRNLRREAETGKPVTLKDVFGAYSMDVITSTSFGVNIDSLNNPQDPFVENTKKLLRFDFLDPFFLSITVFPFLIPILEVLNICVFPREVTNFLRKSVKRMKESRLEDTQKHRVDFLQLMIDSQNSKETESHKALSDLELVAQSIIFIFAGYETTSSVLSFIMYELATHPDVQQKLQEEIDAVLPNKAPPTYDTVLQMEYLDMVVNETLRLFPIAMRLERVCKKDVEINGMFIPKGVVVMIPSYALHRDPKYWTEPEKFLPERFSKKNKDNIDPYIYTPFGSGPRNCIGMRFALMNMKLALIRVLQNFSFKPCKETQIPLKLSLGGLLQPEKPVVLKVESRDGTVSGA
# Cytochrome P450 2D6, sequence (P10635 whole entry): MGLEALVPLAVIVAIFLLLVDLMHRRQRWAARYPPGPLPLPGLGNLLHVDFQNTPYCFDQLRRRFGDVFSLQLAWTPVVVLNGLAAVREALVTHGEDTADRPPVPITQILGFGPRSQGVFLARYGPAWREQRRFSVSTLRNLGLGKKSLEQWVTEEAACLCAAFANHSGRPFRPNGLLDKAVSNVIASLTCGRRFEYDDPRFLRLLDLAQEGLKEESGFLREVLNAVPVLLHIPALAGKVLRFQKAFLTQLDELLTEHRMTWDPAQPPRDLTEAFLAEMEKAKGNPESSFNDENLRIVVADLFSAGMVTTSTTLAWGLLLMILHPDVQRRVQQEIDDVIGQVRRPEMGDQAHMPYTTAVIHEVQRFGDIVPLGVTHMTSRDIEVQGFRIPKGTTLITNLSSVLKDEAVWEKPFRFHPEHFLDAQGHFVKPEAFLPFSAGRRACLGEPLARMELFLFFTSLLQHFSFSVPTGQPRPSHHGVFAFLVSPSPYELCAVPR
SMILES,Ki [1],Ki [3],Ki [4],Ki [5],Ki (D(2) dopamine receptor),Ki [6],also measured
CC1=CC=CN2C(=O)C3C=C(S(=O)(=O)c4ccccc4)C(=N)N(Cc4ccc(F)cc4)C3N=C12 (stereo not given),594 nM,–,–,–,–,–,–
CN1C=C2C(NC(=S)NC2c2ccc(F)cc2)/C(=C\c2ccc(F)cc2)C1 (stereo not given),596 nM,–,–,–,–,–,–
CC(CSc1nc2ccccc2c(=O)n1-c1ccc(Cl)cc1)N(C)C (stereo not given),20 nM,–,–,–,–,–,–
COc1ccc2[nH]cc(CCN(C)Cc3ccc(-c4ccc(O)cc4)o3)c2c1,–,199 nM,–,–,–,–,half-life at 1 h ([2]; microsomes): 10 min; microsomal CLint at 1 h (in vitro; microsomes): 138 µL/min/mg
COc1ccc2[nH]cc(CCNCc3ccc(-c4ccc(O)cc4)o3)c2c1,–,3 nM,41 nM,206 nM,220 nM,120 nM,half-life at 1 h ([2]; liver microsomes): 22 min; microsomal CLint at 1 h (in vitro; liver microsomes): 63.4 µL/min/mg
N=C(NC1=NC2CCCCC2C(=O)N1)N1CCC(Cc2ccccc2)CC1 (stereo not given),21 nM,–,–,–,–,–,–
COc1ccc(Cc2nc(N3CCNCC3)nc3cccnc23)c(OC)c1,58 nM,–,–,–,–,–,–
Oc1c(CN2CCCC2)cc(CSc2ccccc2)c2cccnc12,894 nM,–,–,–,–,–,–
Oc1ccc(-c2ccc(CNCCc3c[nH]c4ccc(F)cc34)o2)cc1,–,2 nM,11 nM,895 nM,376 nM,1010 nM,half-life at 1 h ([2]; microsomes): 6 min; microsomal CLint at 1 h (in vitro; microsomes): 251 µL/min/mg; inhibition at 1 µM (5-HT2C receptor [7]): 99%
Fc1ccc2c(CCNCc3cccc(OCC(F)(F)C(F)F)c3)c[nH]c2c1 [IDALOPIRDINE],–,–,791 nM,8640 nM,1210 nM,3940 nM,half-life at 1 h ([2]; microsomes): 14 min; Activity (Rattus norvegicus [8]): Active
CN1CCN(c2oc(-c3ccccc3Cl)nc2S(=O)(=O)c2ccccc2)CC1,61 nM,–,–,–,–,–,–
COc1ccc2[nH]c(C)c(CCNCc3ccc(-c4ccc(O)cc4)o3)c2c1,–,21 nM,42 nM,5320 nM,167 nM,–,half-life at 1 h ([2]; liver microsomes): 8 min; microsomal CLint at 1 h (in vitro; liver microsomes): 184 µL/min/mg
Cc1cc(OCCN(C)C)nc(NCc2ccccc2)n1,875 nM,–,–,–,–,–,–
CCc1cc2c(N3CCN(C)CC3)nc(C)nc2s1,316 nM,–,–,–,–,–,–
Oc1ccc(-c2ccc(CNCCc3c[nH]c4ncc(F)cc34)o2)cc1,–,25 nM,32 nM,13800 nM,–,6200 nM,Kb [9]: 27 nM; half-life at 1 h ([2]; liver microsomes): 14 min; inhibition [10]: -1.3%; inhibition [11]: 8.9%; inhibition at 1 µM (hERG (KCNH2)): 42.2%; IC50 (Cytochrome P450 2D6): 8400 nM; Activity [12]: Non-Toxic; Kp [13]: 0.7; IC50 (HepG2 [14]): 5140 nM; inhibition [15]: 35.5%; microsomal CLint at 1 h (in vitro; liver microsomes): 103 µL/min/mg; Activity (Rattus norvegicus [16]): Active; inhibition [17]: 4%; Papp B→A (P-gp (ABCB1) [18]): 3.43 ×10⁻⁶ cm/s; inhibition [19]: 3.2%; IC50 (Cytochrome P450 3A4): 7800 nM; inhibition [20]: 19.1%; Papp A→B (P-gp (ABCB1) [21]): 8.87 ×10⁻⁶ cm/s; IC50 (HepG2 [22]): 6200 nM; inhibition at 1 µM (5-HT2C receptor [23]): 59.9%
c1ccc(-c2ccc(CNCCc3c[nH]c4ccccc34)o2)cc1,–,91 nM,461 nM,1280 nM,676 nM,125 nM,–
COc1ccc2[nH]cc(CCNCc3ccc(-c4ccc(Cl)cc4)o3)c2c1,–,67 nM,607 nM,2170 nM,571 nM,218 nM,–
Oc1ccc(-c2ccc(CNCCc3c[nH]c4ccccc34)o2)cc1,–,7 nM,175 nM,1620 nM,757 nM,292 nM,half-life at 1 h ([2]; liver microsomes): 6 min; microsomal CLint at 1 h (in vitro; liver microsomes): 222 µL/min/mg
COc1cc2c(cc1OC)C(=O)C(CC1CCN(Cc3ccccc3)CC1)C2 (stereo not given) [DONEPEZIL],–,–,–,–,–,–,half-life at 1 h ([2]; microsomes): 96 min; microsomal CLint at 1 h (in vitro; microsomes): 14.4 µL/min/mg
CN1CCN(c2nc(NCc3ccccc3)c3c(n2)N(C)NC3)CC1,7 nM,–,–,–,–,–,–
Cc1nc(N2CCCN(C)CC2)c2c3c(sc2n1)CCC3,198 nM,–,–,–,–,–,–
CN1CCN(c2ccnc(SCc3ccccc3Cl)n2)CC1,8880 nM,–,–,–,–,–,–
